Earlier results, collected in patent US20090029020A1, “CYCLODEXTRIN INCLUSION COMPLEXES AND METHODS OF PREPARING SAME” (CARGILL, INCORPORATED, priority 2005, published 2009).
Like-named read-outs stand apart in the source and are kept apart here. Residues, ends and D or L forms follow the SMILES beside them.

Settings: octanol/water partition coefficient

Row | SMILES | log P (Table 1A) | log P (Table 9)
1 | CC=O [acetaldehyde] | −0.17 | −0.17
2 | COC(=O)[C@H](Cc1ccccc1)NC(=O)[C@@H](N)CC(=O)O [aspartame] (H-Asp-Phe-OMe) | 0.07 | 0.07
3 | ClC1CCCCC1 [chlorocyclohexane (CCH), chlorocyclohexane] | 3.36 | 3.36
4 | CN(CC(=O)O)C(=N)N [creatine] | −3.72 | −3.72
5 | CC(=O)C(C)=O [diacetyl] | −1.34 | −1.34
6 | CSC [dimethyl sulfide] | 0.92 | 0.92
7 | CCOC(=O)C(C)C [ethyl isobutyrate] | 1.77 | 1.77
8 | CCOC(=O)CC(C)C [ethyl isovalerate] | 2.26 | 2.26
9 | CCOC(=O)C(C)O (stereo not drawn) [ethyl lactate] | −0.18 | −0.18
10 | CCOC(=O)CCC(C)=O [ethyl levulinate] | 0.29 | 0.29
11 | CCc1occc(=O)c1O [ethyl maltol] | 0.30 | 0.30
12 | CCOc1cc(C=O)ccc1O [ethyl vanillin] | 1.50 | 1.50
13 | CC1=C(O)C(=O)C(C)O1 (stereo not drawn) [furaneol] | 0.82 | 0.82
14 | C=C(C)[C@H]1CC=C(C)CC1 [limonene] | 4.83 | 4.83
15 | C=CC(C)(O)CCC=C(C)C (stereo not drawn) [linalool] |  | 3.38
16 | Cc1occc(=O)c1O [maltol] | −0.19 | −0.19
17 | CO [methanol] | −0.74 | −0.74
18 | Cc1ccc(C(C)C)cc1 [p-cymene] | 4.10 | 4.10
19 | O=C(O)[C@@H]1CCCN1 [proline] | −2.15 | −2.15
20 | CC(=O)CCc1ccc(O)cc1 [raspberry ketone] | 1.48 | 1.48
